From patent US20150031765A1, “TREATMENT OF COGNITIVE IMPAIRMENT” (priority 2011, published 2015)
Counter-ions that a name gives are not always drawn.

Assays:
[1] = test system: scopolamine induced learning and memory deficit; test: Morris water maze test, scopolamine induced learning and memory deficit in rats; format: in vivo, Sprague-Dawley male rats; settings: for average time to locate the submerged platform: Day 1 of acquisition trials, whole group
Protocol: The Morris water maze test is a classical cognitive test for evaluation of spatial learning and memory in rodents. […] 60 Sprague-Dawley male rats were used in the present study. The animals were housed in cages in groups of four rats per cage. All rats were fed with food and water ad libitum. The testing apparatus can be described as follows. A circular pool was filled with water (24±1° C.) to the depth of 30 cm. […] Four start positions were at the perimeter of the pool: the first one in the first quadrant, the second one in the second quadrant, the third one in the third quadrant and the last one in the fourth quadrant. The rats were trained to escape from water by swimming to a hidden platform whose location was only identified using visual cues attached to the curtain around the pool. Visual cues had different colors and dimensions and were kept constant during the whole experiment. All rats were trained in the swimming pool for 60 seconds without the platform. […] The training procedure included 4 trials per day with 4 different and randomized starting positions. In each trial, the time of rat to reach the platform (escape latency) was recorded, and then the rat was allowed to stay on the platform for 15 seconds. […] The experimental group setting is described in Table 3. […] For practical reasons, the study was divided into two sessions (Table 4). Each session included 6 groups, and each group included 5 rats. Each session took 10 days to complete. […] On day 6, each rat was placed in the swimming pool with no platform to locate the platform site for 60 seconds. […] Any Maze software was used for video tracking and data collection during the whole acquisition trial and probe trial. In acquisition trial, escape latency was recorded. In probe trial, time spent in target and swimming speed was recorded. Data were analyzed and graphed by Graph Pad Prism 5.

[2] = test system: memory dysfunction of scopolamine-treated rats; settings: Morris water maze test; cited from earlier work
[3] = Day 1, session 1, 250 mg/kg po + scopolamine 0.5 mg/kg ip
[4] = Day 1, session 2, 250 mg/kg po + scopolamine 0.5 mg/kg ip
[5] = Day 2, session 1, 250 mg/kg po + scopolamine 0.5 mg/kg ip
[6] = Day 2, session 2, 250 mg/kg po + scopolamine 0.5 mg/kg ip
[7] = Day 3, session 1, 250 mg/kg po + scopolamine 0.5 mg/kg ip
[8] = Day 3, session 2, 250 mg/kg po + scopolamine 0.5 mg/kg ip
[9] = Day 4, session 1, 250 mg/kg po + scopolamine 0.5 mg/kg ip
[10] = Day 4, session 2, 250 mg/kg po + scopolamine 0.5 mg/kg ip
[11] = Day 5, session 1, 250 mg/kg po + scopolamine 0.5 mg/kg ip
[12] = Day 5, session 2, 250 mg/kg po + scopolamine 0.5 mg/kg ip
[13] = Day 6, session 1, 250 mg/kg po + scopolamine 0.5 mg/kg ip on days 1-5
[14] = Day 6, session 2, 250 mg/kg po + scopolamine 0.5 mg/kg ip on days 1-5, in s

C[C@@]12CC[C@@H]3[C@@](CC[C@H]4[C@@]3(C)CCC[C@@]4(C)C(=O)O)(CC1=O)C2 (single isomer, unassigned; ent-16) [Isosteviol, ent-16-ketobeyeran-19-oic acid]
effect on learning and memory deficit induced by scopolamine, probe trials (in words) ([1]; 80 mg/kg): significantly attenuated
effect on learning and memory deficit induced by scopolamine, probe trials (in words) ([1]; 250 mg/kg): not
Latency to escape in acquisition trial ([1]; Day 1, session 1, 80 mg/kg po + scopolamine 0.5 mg/kg ip): 46.46 ± 4.50 s
Latency to escape in acquisition trial [1, 3]: 46.16 ± 2.48 s
Latency to escape in acquisition trial ([1]; Day 1, session 2, 80 mg/kg po + scopolamine 0.5 mg/kg ip): 45.20 ± 6.40 s
Latency to escape in acquisition trial [1, 4]: 48.46 ± 4.49 s
average time to locate the submerged platform ([1]; 80 mg/kg po + scopolamine): 45.83 ± 3.70 s
average time to locate the submerged platform ([1]; 250 mg/kg po + scopolamine): 47.31 ± 2.45 s
Latency to escape in acquisition trial ([1]; Day 2, session 1, 80 mg/kg po + scopolamine 0.5 mg/kg ip): 45.24 ± 7.87 s
Latency to escape in acquisition trial [1, 5]: 43.94 ± 5.18 s
Latency to escape in acquisition trial ([1]; Day 2, session 2, 80 mg/kg po + scopolamine 0.5 mg/kg ip): 41.88 ± 3.19 s
Latency to escape in acquisition trial [1, 6]: 50.76 ± 3.90 s
Latency to escape in acquisition trial ([1]; Day 3, session 1, 80 mg/kg po + scopolamine 0.5 mg/kg ip): 40.42 ± 5.48 s
Latency to escape in acquisition trial [1, 7]: 48.62 ± 5.64 s
Latency to escape in acquisition trial ([1]; Day 3, session 2, 80 mg/kg po + scopolamine 0.5 mg/kg ip): 36.04 ± 5.50 s
Latency to escape in acquisition trial [1, 8]: 40.42 ± 4.57 s
Latency to escape in acquisition trial ([1]; Day 4, session 1, 80 mg/kg po + scopolamine 0.5 mg/kg ip): 37.84 ± 4.36 s
Latency to escape in acquisition trial [1, 9]: 44.36 ± 6.54 s
Latency to escape in acquisition trial ([1]; Day 4, session 2, 80 mg/kg po + scopolamine 0.5 mg/kg ip): 38.74 ± 5.25 s
Latency to escape in acquisition trial [1, 10]: 41.58 ± 6.33 s
Latency to escape in acquisition trial ([1]; Day 5, session 1, 80 mg/kg po + scopolamine 0.5 mg/kg ip): 27.14 ± 4.30 s
Latency to escape in acquisition trial [1, 11]: 41.44 ± 7.24 s
Latency to escape in acquisition trial ([1]; Day 5, session 2, 80 mg/kg po + scopolamine 0.5 mg/kg ip): 33.38 ± 6.04 s
Latency to escape in acquisition trial [1, 12]: 35.24 ± 7.74 s
Time spent in target quadrant in probe trial ([1]; Day 6, session 1, 80 mg/kg po + scopolamine 0.5 mg/kg ip on days 1-5): 19.80 ± 1.19 s
Time spent in target quadrant in probe trial [1, 13]: 16.00 ± 2.37 s
Time spent in target quadrant in probe trial ([1]; Day 6, session 2, 80 mg/kg po + scopolamine 0.5 mg/kg ip on days 1-5, in s): 17.28 ± 1.11
Time spent in target quadrant in probe trial [1, 14]: 16.50 ± 1.61
visible behavioral abnormalities ([1]; Morris water maze study): no visible behavioral abnormalities

COc1cc2c(cc1OC)C(=O)C(CC1CCN(Cc3ccccc3)CC1)C2 (stereo not drawn) [Donepezil, Donepezil hydrochloride]
effect on learning and memory deficit induced by scopolamine, probe trials (in words) ([1]; 0.1 mg/kg, vs scopolamine only group): significantly attenuated
Latency to escape in acquisition trial ([1]; Day 1, session 1, 0.1 mg/kg ip + scopolamine 0.5 mg/kg ip): 48.52 ± 5.50 s
Latency to escape in acquisition trial ([1]; Day 1, session 2, 0.1 mg/kg ip + scopolamine 0.5 mg/kg ip): 45.44 ± 5.40 s
average time to locate the submerged platform ([1]; 0.1 mg/kg ip + scopolamine): 46.98 ± 3.67 s
Latency to escape in acquisition trial ([1]; Day 2, session 1, 0.1 mg/kg ip + scopolamine 0.5 mg/kg ip): 44.50 ± 2.48 s
Latency to escape in acquisition trial ([1]; Day 2, session 2, 0.1 mg/kg ip + scopolamine 0.5 mg/kg ip): 43.18 ± 7.85 s
Latency to escape in acquisition trial ([1]; Day 3, session 1, 0.1 mg/kg ip + scopolamine 0.5 mg/kg ip): 35.92 ± 8.22 s
Latency to escape in acquisition trial ([1]; Day 3, session 2, 0.1 mg/kg ip + scopolamine 0.5 mg/kg ip): 37.06 ± 4.26 s
Latency to escape in acquisition trial ([1]; Day 4, session 1, 0.1 mg/kg ip + scopolamine 0.5 mg/kg ip): 36.04 ± 4.78 s
Latency to escape in acquisition trial ([1]; Day 4, session 2, 0.1 mg/kg ip + scopolamine 0.5 mg/kg ip): 34.20 ± 6.89 s
Latency to escape in acquisition trial ([1]; Day 5, session 1, 0.1 mg/kg ip + scopolamine 0.5 mg/kg ip): 26.86 ± 3.09 s
Latency to escape in acquisition trial ([1]; Day 5, session 2, 0.1 mg/kg ip + scopolamine 0.5 mg/kg ip): 30.50 ± 5.78 s
Time spent in target quadrant in probe trial ([1]; Day 6, session 1, 0.1 mg/kg ip + scopolamine 0.5 mg/kg ip on days 1-5): 18.84 ± 3.22 s
Time spent in target quadrant in probe trial ([1]; Day 6, session 2, 0.1 mg/kg ip + scopolamine 0.5 mg/kg ip on days 1-5, in s): 19.40 ± 1.09

CN1[C@@H]2C[C@@H](OC(=O)[C@H](CO)c3ccccc3)C[C@H]1[C@@H]1O[C@@H]12 [Scopolamine]
average time to locate the submerged platform ([1]; scopolamine 0.5 mg/kg ip alone): 46.11 ± 2.98 s
latency to the submerged platform in acquisition trials (effect in words) ([1]; Day 5, scopolamine 0.5 mg/kg): significantly increased
Time spent in target quadrant in probe trial ([1]; Day 6, session 1, scopolamine 0.5 mg/kg ip alone (0.5% MC po) on days 1-5): 15.70 ± 1.42 s
Time spent in target quadrant in probe trial ([1]; Day 6, session 2, scopolamine 0.5 mg/kg ip alone (0.5% MC po) on days 1-5, in s): 12.30 ± 1.24
time to locate in target quadrant in probe trials (effect in words) ([1]; scopolamine 0.5 mg/kg): reduced

C=C1C[C@@]23CC[C@H]4[C@@](C)(CCC[C@@]4(C)C(=O)O[C@@H]4O[C@H](CO)[C@@H](O)[C@H](O)[C@H]4O)[C@@H]2CC[C@]1(O[C@@H]1O[C@H](CO)[C@@H](O)[C@H](O)[C@H]1O[C@@H]1O[C@H](CO)[C@@H](O)[C@H](O)[C@H]1O)C3 [Stevioside]
effect on learning and memory deficit induced by scopolamine, probe trials (in words) ([1]; 250 mg/kg): significantly reversed
Latency to escape in acquisition trial [1, 3]: 44.98 ± 5.53 s
Latency to escape in acquisition trial [1, 4]: 46.48 ± 3.66 s
average time to locate the submerged platform ([1]; 250 mg/kg po + scopolamine): 45.73 ± 3.14 s
Latency to escape in acquisition trial [1, 5]: 45.78 ± 6.95 s
Latency to escape in acquisition trial [1, 6]: 40.44 ± 3.63 s
Latency to escape in acquisition trial [1, 7]: 44.80 ± 5.46 s
Latency to escape in acquisition trial [1, 8]: 39.46 ± 9.62 s
Latency to escape in acquisition trial [1, 9]: 41.74 ± 6.39 s
Latency to escape in acquisition trial [1, 10]: 35.78 ± 4.95 s
Latency to escape in acquisition trial [1, 11]: 30.86 ± 6.57 s
Latency to escape in acquisition trial [1, 12]: 31.08 ± 3.33 s
Time spent in target quadrant in probe trial [1, 13]: 20.78 ± 3.75 s
Time spent in target quadrant in probe trial [1, 14]: 21.10 ± 2.16
effect in cognitive deficits of rats (in words) [2]: memory-preservative effect
